# Data as given in ChEMBL document CHEMBL4400566, “Discovery of new ureido benzenesulfonamides incorporating 1,3,5-triazine moieties as carbonic anhydrase I, II, IX and XII inhibitors” (Bioorg Med Chem, 2019).
# Molecular target: Carbonic anhydrase 9 (Homo sapiens, UniProt Q16790)
# Description: Inhibition of recombinant human carbonic anhydrase 9 incubated for 15 mins prior to testing measured for 5 to 10 secs by phenol red-based stopped-flow CO2 hydration assay
row,Structure (SMILES),Ki [nM]
1,NS(=O)(=O)c1ccc(NC(=O)Nc2nc(Cl)nc(Nc3ccccc3)n2)cc1,14.1
2,CN(C)c1nc(NC(=O)Nc2ccc(S(N)(=O)=O)cc2)nc(Nc2ccc(F)cc2)n1,66.9
3,NS(=O)(=O)c1ccc(NC(=O)Nc2nc(Cl)nc(Nc3ccc(F)cc3)n2)cc1,46.8
4,NS(=O)(=O)c1ccc(NC(=O)Nc2nc(Cl)nc(Nc3ccc(Cl)c(Cl)c3)n2)cc1,35.6
5,NS(=O)(=O)c1ccc(NC(=O)Nc2nc(Cl)nc(Nc3ccc(Cl)cc3)n2)cc1,44
6,NS(=O)(=O)c1ccc(NC(=O)Nc2nc(Nc3ccc(Cl)c(Cl)c3)nc(N3CCCCC3)n2)cc1,87.9
7,CN(C)c1nc(NC(=O)Nc2ccc(S(N)(=O)=O)cc2)nc(Nc2ccc(Cl)cc2)n1,38.1
8,CN(C)c1nc(NC(=O)Nc2ccc(S(N)(=O)=O)cc2)nc(Nc2ccc(Cl)c(Cl)c2)n1,23.5
9,CN(C)c1nc(NC(=O)Nc2ccc(S(N)(=O)=O)cc2)nc(Nc2ccccc2)n1,19

# The remaining lines, values ahead:
row,Ki [nM],Structure (SMILES)
1,24.9,NS(=O)(=O)c1ccc(NC(=O)Nc2nc(Nc3ccc(S(N)(=O)=O)cc3)nc(N3CCOCC3)n2)cc1
2,28.6,NS(=O)(=O)c1ccc(NC(=O)Nc2nc(Nc3ccc(Cl)cc3)nc(N3CCOCC3)n2)cc1
3,43.3,NS(=O)(=O)c1ccc(NC(=O)Nc2nc(Nc3ccc(Cl)cc3)nc(N3CCCCC3)n2)cc1
4,14.6,CN(C)c1nc(NC(=O)Nc2ccc(S(N)(=O)=O)cc2)nc(Nc2ccc(S(N)(=O)=O)cc2)n1
5,185,NS(=O)(=O)c1ccc(NC(=O)Nc2nc(Nc3ccc(F)cc3)nc(N3CCOCC3)n2)cc1
6,11.8,NS(=O)(=O)c1ccc(NC(=O)Nc2nc(Cl)nc(Nc3ccc(S(N)(=O)=O)cc3)n2)cc1
7,36.9,NS(=O)(=O)c1ccc(NC(=O)Nc2nc(Nc3ccccc3)nc(N3CCOCC3)n2)cc1
8,105,NS(=O)(=O)c1ccc(NC(=O)Nc2nc(Nc3ccc(Cl)c(Cl)c3)nc(N3CCOCC3)n2)cc1
9,32.3,NS(=O)(=O)c1ccc(NC(=O)Nc2nc(Nc3ccccc3)nc(N3CCCCC3)n2)cc1
10,28.4,NS(=O)(=O)c1ccc(NC(=O)Nc2nc(Nc3ccc(S(N)(=O)=O)cc3)nc(N3CCCCC3)n2)cc1
11,151,NS(=O)(=O)c1ccc(NC(=O)Nc2nc(Nc3ccc(F)cc3)nc(N3CCCCC3)n2)cc1
